Measurements taken from paper PMC11748363, “Antimicrobial and Antiproliferative Properties of 2‐Phenyl‐N‐(Pyridin‐2‐yl)acetamides” (Chemical Biology & Drug Design, 2025).
≈ marks a conversion by molar mass, not a printed value. Read-outs that look alike come from different tables or passages of the source.

Key:
[1] = system: Mycolicibacterium aurum DSM 43999; test: Antimycobacterial microdilution broth MIC (resazurin), M. aurum; format: cell-based; settings: DSM43999, read-out: MIC M. aurum
[2] = system: Staphylococcus epidermidis CCM 4418, ATCC 12228; test: Antibacterial microdilution broth MIC, SE; format: cell-based
[3] = system: Pseudomonas aeruginosa CCM 3955, ATCC 27853; test: Antibacterial microdilution broth MIC, PA; format: cell-based
[4] = system: Staphylococcus aureus CCM 4223, ATCC 29213; test: Antibacterial microdilution broth MIC, SA; format: cell-based; settings: Staphylococcus aureus
[5] = system: Aspergillus fumigatus ATCC 204305; test: Antifungal microdilution broth MIC, AF
[6] = system: Candida tropicalis CCM 8264, ATCC 750; test: Antifungal microdilution broth MIC, CT
[7] = system: Lichtheimia corymbifera CCM 8077; test: Antifungal microdilution broth MIC, LC
[8] = system: Candida albicans CCM 8320, ATCC 24433; test: Antifungal microdilution broth MIC, CA
[9] = system: Staphylococcus aureus subsp. aureus CCM 4750, ATCC 43300 (MRSA); test: Antibacterial microdilution broth MIC, MRSA; format: cell-based; settings: Staphylococcus aureus
[10] = system: Aspergillus flavus CCM 8363; test: Antifungal microdilution broth MIC, AFla
[11] = system: Klebsiella pneumoniae CCM 4415, ATCC 10031; test: Antibacterial microdilution broth MIC, KP
[12] = system: Mycolicibacterium smegmatis DSM 43465; test: Antimycobacterial microdilution broth MIC (resazurin), M. smegmatis; format: cell-based; settings: DSM43465, read-out: MIC M. smegmatis
[13] = system: Candida parapsilosis CCM 8260, ATCC 22019; test: Antifungal microdilution broth MIC, CP; settings: Lodderomyces parapsilosis
[14] = system: Trichophyton interdigitale CCM 8377, ATCC 9533; test: Antifungal microdilution broth MIC, TI; settings: Trichophyton interdigitale
[15] = system: Acinetobacter baumannii DSM 30007, ATCC 19606; test: Antibacterial microdilution broth MIC, ACI; format: cell-based
U‐87 MG cell line = test: Cytotoxicity CellTiter 96, U-87 MG; format: cell-based; settings: Homo sapiens, 24 h incubation
Experimental: (§1) The cytotoxicity of final compounds was determined in human hepatocellular carcinoma cell line HepG2. Additional testing of selected compounds was performed on human epithelial kidney cancer cell line A498, human prostate cancer cell line PC‐3, human glioblastoma cell line U‐87 MG, and normal human proximal tubule cell line HK‐2.
(§2) Cytotoxicity determination […]
(§3) For subculturing, the cells were harvested after trypsin/EDTA (Sigma–Aldrich) treatment at 37 °C. To evaluate cytotoxicity, the cells treated with the tested substances were used as experimental groups whereas untreated HepG2 cells served as controls. The cells were seeded in density 10,000 cells per well in a 96 well plate. The next day the cells were treated with each of the tested substances dissolved in DMSO. The tested substances were […]
(§4) in triplicates according to their solubility. Simultaneously, the controls representing 100% cell viability, 0% cell viability (the cells treated with 10% DMSO), no cell control and vehiculum controls were also […]
(§5) the reagent from the kit CellTiter 96 AQueous One Solution Cell Proliferation Assay (CellTiter 96; PROMEGA, Fitchburg, USA) was added. After 2h incubation at 37 °C, absorbance of samples was recorded at 490 nm (TECAN, Infinita M200, Austria). A standard toxicological parameter IC50 was calculated by nonlinear regression from a semilogarithmic plot of incubation concentration versus percentage of absorbance relative to untre ated controls using GraphPad Prism 8 software. […]
(§6) Kaighn's Modification of Ham's F-12 Medium and human glioblastoma astrocytoma U-87 MG cell line, […]
(§7) Glucose medium. All cultures were supplemented with 10% fetal bovine serum, 1% non-essential amino acids (A498, HK-2 and U-87 MG), 1% sodium pyruvate (A498, HK-2 and U-87 MG) and 2 mM L-glutamine. All cell culture consumables were purchased from Merck (Darmstadt, Germany). The cells

PC‐3 cell line = test: Cytotoxicity CellTiter 96, PC-3; format: cell-based; settings: Homo sapiens, 24 h incubation
Experimental: as §1, §2, §3, §4, §5, §6, §7

A498 cell line = test: Cytotoxicity CellTiter 96, A498; format: cell-based; settings: Homo sapiens, 24 h incubation
Experimental: as §1, §2, §3, §4
the reagent from the kit CellTiter 96 AQueous One Solution Cell Proliferation Assay (CellTiter 96; PROMEGA, Fitchburg, USA) was added. After 2h incubation at 37 °C, absorbance of samples was recorded at 490 nm (TECAN, Infinita M200, Austria). A standard toxicological parameter IC50 was calculated by nonlinear regression from a semilogarithmic plot of incubation concentration versus percentage of absorbance relative to untre ated controls using GraphPad Prism 8 software.
Human epithelial kidney carcinoma A498 cell line, obtained from American Type Culture Collection (ATCC, Manassas, VA, USA, catalogue No.: HTB -44), was cultured in RPMI medium, Human normal kidney proximal tubule HK-2 cell line obtained from ATCC (ATCC, Manassas, VA, USA, catalogue No.:
as §6
Glucose medium. All cultures were supplemented with 10% fetal bovine serum, 1% non-essential amino acids (A498, HK-2 and U-87 MG), 1% sodium pyruvate (A498, HK-2 and U-87 MG) and 2 mM L-glutamine. […]

[16] = ATCC204305, 24 h, read-out: MIC AF 24h
[17] = ATCC204305, 48 h, read-out: MIC AF 48h
[18] = CCM8077, 24 h, read-out: MIC LC 24h
[19] = CCM8077, 48 h, read-out: MIC LC 48h
[20] = CCM8363, 24 h, read-out: MIC AFla 24h
[21] = CCM8363, 48 h, read-out: MIC AFla 48h

Row | SMILES | MIC [1] | MIC ([2]; 24 h, read-out: MIC SE 24h) | MIC ([2]; 48 h, read-out: MIC SE 48h) | MIC ([3]; 24 h, read-out: MIC PA 24h) | MIC ([3]; 48 h, read-out: MIC PA 48h) | MIC ([4]; 24 h, read-out: MIC SA 24h) | MIC ([4]; 48 h, read-out: MIC SA 48h) | MIC [5, 16] | MIC [5, 17] | MIC ([6]; 24 h, read-out: MIC CT 24h) | MIC ([6]; 48 h, read-out: MIC CT 48h) | MIC [7, 18] | MIC [7, 19] | MIC ([8]; 24 h, read-out: MIC CA 24h) | MIC ([8]; 48 h, read-out: MIC CA 48h) | MIC ([9]; 24 h, read-out: MIC MRSA 24h) | MIC ([9]; 48 h, read-out: MIC MRSA 48h) | MIC [10, 20] | MIC [10, 21] | MIC KP 24h [11] | further results
1 | COc1ccc(CC(=O)Nc2cccc(Cl)n2)cc1 [Compound 12, 2-(4-methoxyphenyl)-N-(6-chloropyridin-2-yl)acetamide] | 62.5 µg/mL (≈ 226 µM) | 500 µM (≈ 138 µg/mL) | > 500 µM | > 500 µM | > 500 µM | 500 µM (≈ 138 µg/mL) | 500 µM (≈ 138 µg/mL) | > 500 µM | > 500 µM | > 500 µM | > 500 µM | > 500 µM | > 500 µM | > 500 µM | > 500 µM | 500 µM (≈ 138 µg/mL) | > 500 µM | > 500 µM | > 500 µM | > 500 µM | MIC KP 48h [11]: > 500 µM; MIC [12]: 62.5 µg/mL (≈ 226 µM); MIC ([13]; 24 h, read-out: MIC CP 24h): > 500 µM; MIC ([13]; 48 h, read-out: MIC CP 48h): > 500 µM; MIC ([14]; 72 h, read-out: MIC TI 72h): > 500 µM; MIC ([14]; 120 h, read-out: MIC TI 120h): > 500 µM; MIC ([15]; 24 h, read-out: MIC ACI 24h): > 500 µM; MIC ([15]; 48 h, read-out: MIC ACI 48h): > 500 µM
2 | O=C(Cc1cccc(Cl)c1)Nc1ccc(Cl)cn1 [Compound 17, 2-(3-chlorophenyl)-N-(5-chloropyridin-2-yl)acetamide] | 250 µg/mL (≈ 889 µM) | > 500 µM | > 500 µM | > 500 µM | > 500 µM | > 500 µM | > 500 µM | > 500 µM | > 500 µM | > 500 µM | > 500 µM | > 500 µM | > 500 µM | > 500 µM | > 500 µM | > 500 µM | > 500 µM | > 500 µM | > 500 µM | > 500 µM | IC50 (U‐87 MG cell line): 161 µM; IC50 (PC‐3 cell line): 213 µM; MIC KP 48h [11]: > 500 µM; MIC [12]: > 500 µg/mL; MIC ([13]; 24 h, read-out: MIC CP 24h): > 500 µM; MIC ([13]; 48 h, read-out: MIC CP 48h): > 500 µM; IC50 (A498 cell line): 135 µM; MIC ([14]; 72 h, read-out: MIC TI 72h): 500 µM (≈ 141 µg/mL); MIC ([14]; 120 h, read-out: MIC TI 120h): 500 µM (≈ 141 µg/mL); MIC ([15]; 24 h, read-out: MIC ACI 24h): > 500 µM; MIC ([15]; 48 h, read-out: MIC ACI 48h): > 500 µM
